One experiment has as its system SBP of white rats. Nature of the experiment: Antihypertensive effect in normotensive white rats. The experiment is classed as in vivo. Conditions: for Antihypertensive effect, %: intravenous, after 3 hours, Octadine 6.2 mg/kg, Greenflo 5.0 mg/kg (as thick chlorophyllipt extract), 0.025 mmol/kg. How it is done:
The antihypertensive effect of the drugs was evaluated after 3 hours of observation. Digital data table.
For an objective comparison of the activity of the studied substances, ED30 was experimentally established (a unit of action that causes a decrease in SBP by 30%) for each drug. For this purpose, the value of the hypotensive effect of various doses of substances in three groups of five white rats was determined in experiment, the arithmetic mean of the obtained series and their standard errors were calculated. Then, digital data was plotted and ED30 was calculated.
An indicator of the true hypotensive effect of a new chemical is its ability to lower pathologically elevated SBP. To solve this problem, 5 adult white rats with spontaneous hypertension (weight 260-280 g) were used, in which, before the experiment, the level of SBP averaged 180±1.7 mm Hg. For comparison, an experiment was conducted on 5 white rats with normal SBP. 17.

The subject of experiment [1] is systemic blood pressure of rabbits. Nature of the experiment: Antihypertensive effect in rabbits. In kind it is in vivo. Conditions: intravenous, 3 hours, Octadine 15.0 mg/kg (0.06 mmol/kg), Greenflo 10.0 mg/kg (0.05 mmol/kg).
Experiment [2] has as its system systemic blood pressure of cats. Nature of the experiment: Antihypertensive effect in cats. The experiment is classed as in vivo. Particulars: 3 hours, Octadine 20.0 mg/kg (0.08 mmol/kg), Greenflo 10.0 mg/kg (0.05 mmol/kg).
Experiment [3] is described as follows: Biological activity of fully substituted quercetins (test not specified).
Experiment [4] deals with carrageenan edema of the foot. Conditions: from references [14, 16]; cited from earlier work.

The text below walks through data of US11229622B2, “Cosmetological and pharmaceutical composition based on combinatorial quercetin derivative” (priority 2017, dated 2022).

As for `N=C(N)NCCN1CCCCCCC1` [Octadine], the figures for the “The effect, % (hypotensive)” value in the experiment on SBP of white rats (dose 5.0 mg/kg), with SBP of white rats (dose 10.0 mg/kg) and in the experiment with SBP of white rats (dose 20.0 mg/kg) were 18.0 ± 2.7%, 26.0 ± 1.5% and 33.0 ± 4.9%, respectively. The “Antihypertensive effect, %” value in the experiment on SBP of white rats is reported as 19.7 ± 2.2%; with SBP of white rats (listed as octadine), 19.7±2.2%; in experiment [1], 32.0 ± 6.1%; in experiment [2], 35.0 ± 9.9%.
On to `O=C(O)CCC(=O)Oc1cc(OC(=O)CCC(=O)O)c2c(=O)c(OC(=O)CCC(=O)O)c(-c3ccc(OC(=O)CCC(=O)O)c(OC(=O)CCC(=O)O)c3)oc2c1` [Fully succinylated quercetin, pentasuccinyl quercetin], for which the biological activity result in experiment [3] is “did not exhibit biological activity”.
Consider `O=C(O)Cc1ccccc1Nc1c(Cl)cccc1Cl` [DN, sodium diclofenac], for which the “ED 50, mg/kg” value in experiment [4] was 8.0 [14, 16] mg/kg.
